Columns and labels:
[1] = tested on: EpCAM+ BCa cells from patient biopsies; assay: Survival of primary patient BCa cells in matched-plasma 3DeTME cultures; type: cell-based, human; settings: 7 days
Protocol: Methods: To evaluate the association between different variables, correlation tests were performed using the ggpubr R™ package. The Pearson correlation (r) was assessed in order to measure the linear dependence between two variables after confirmation of a normal distribution of the data. In order to assess the predictive value of the drug response metrics obtained in the 3DeTME assays with cell lines, we compared them with metric data obtained from literature relevant for 2D models (IC50) and other 3D models (IC50), as well as effective concentrations in patients from phase I or II studies that examined the pharmacokinetics of the tested chemotherapies (steady state concentration, Css). A scatterplot correlation graph allowed us to establish the strength, direction and form of the relationship between the in vitro models and the Css clinical data, with Pearson correlation coefficients (r) that were calculated to measure the strength of those relationships. […] Small organoids and single cells cultures were grown and analyzed at days 0.5 (γ0), 3, and 7. […] BCa cell counts were acquired and data was analyzed using FlowJo™ v10 (Ashland, Oreg.). Data was normalized to a predetermined number of counting beads, the proliferation of each condition (fold of γ0) and survival (% of control) was calculated and compared.

[2] = tested on: fibrinogen found naturally in plasma; assay: Cross-linking time of plasma into 3DeTME matrix; type: biochemical, human
Protocol: (§1) Methods: 3DeTME cultures are formed through the cross-linking of fibrinogen found naturally in plasma. Cross-linking time was assessed by measuring the time necessary to achieve matrix cross-linking using three relevant cross-linkers of the blood coagulation process including Thrombin (0-5 mg/ml), CaCl2 (0-5 mg/ml), and Factor XIII (0-6 mg/ml). The stabilization effects of preventing fibrin degradation and stability improvement in the scaffold was assessed by surveying several chemical antifibrinolytic agents including tranexamic acid (AMCHA) (0-10 mg/ml), Aprotinin ([…]), epsilon-aminocaproic acid (EACA) (0-2.5 mg/ml), and 4-aminomethylbenzoic acid (PAMBA) (0-2.5 mg/ml). The stability of the scaffold was studied by measuring each scaffold weight at day 0 and again measuring scaffold weight at the conclusion of a 3 week time period. 3DeTME culture scaffold structure and morphology was analyzed with scanning electron microscopy (SEM) using a FEI Quanta™ 450 Scanning Electron Microscope at multiple magnifications. The stiffness of the scaffolds was measured by atomic force microscopy (AFM). The Young's modulus was estimated by fitting a modified Hertz model onto the AFM indentation curve using the built in function of AFM software (Asylum Research). Plasma from cancer patients and healthy subjects was analyzed for fibrinogen content through the clotting method of Clauss. The Clauss fibrinogen assay is a quantitative, clot-based, functional assay. The assay measures the ability of fibrinogen to form fibrin clot after being exposed to a high concentration of purified thrombin. Briefly, plasma samples were loaded into the STA-R™ Evolution Expert Series Hemostasis System (Diagnostica Stago Inc., Parsippany, N.J.) and automated testing was carried out by the analyzer. […] 3DeTME culture supernatants were collected and analyzed by a C-Series Custom Cytokine Antibody Array (RayBiotech Inc., Norcross, Ga.) according to the instructions provided by the manufacturer. […] The chemiluminescence signal intensity of each spot was quantified by densitometric analysis (VisionWorks Software). […]

[3] = tested on: three breast cancer (BCa) cell lines; assay: 3DeTME drug screening, relative cell count and GR values; type: cell-based, human; settings: day 7; for response among the BCa cell lines: 3DeTME, 0.1 nM-300 μM
Protocol: (§2) Methods: Three breast cancer (BCa) cell lines were previously labeled with DiD and incorporated in 3DeTME. Half a day after plating, cells were treated with a DMSO control (γCtrl) and increasing concentrations 0.1 nM-300 μM of seven standard-of-care chemotherapeutic drugs including Methotrexate (MTX), Paclitaxel (PTX), Capecitabine (CAP), Cyclophosphamide Monohydrate (CYCLO), Carboplatin (CARBO), Epirubicin Hydrochloride (EPI), and Docetaxel (DTX). Treatments were added on top of 3DeTME in order to simulate drug diffusion into a tumor. Treatments were refreshed at day 4 and BCa cells were retrieved from the different cultures for analysis at day 0.5 (γ0) and day 7. Samples were prepared in PBS for flow cytometry by adding counting beads (424902, Biolegend, CA) in addition to SytoxTM green dead cell stain (excitation 504 nm, emission 523 nm) ([…], Thermo Fisher Scientific, MA) for viability to each sample. BCa cells were identified by gating live cells with a DiD+ signal using the FL4 channel on BD AccuriTM C6 instrument (CFlow Software) (BD Biosciences). A minimum of 5×103 events was acquired per sample and BCa cell counts were acquired and data was analyzed using the FlowJoTM v10 (Ashland, Oreg.) software. Relative cell count and Growth rate (GR) values. The GR values show the partial inhibition effect of the drug when it achieves GR values from 0 to 1, with the cytostatic effect being represented when the value is equal to 0 and the cytotoxic effect being represented when it lies between 0 and -1.

MDA-MB-231 = assay: as above; type: cell-based, human; settings: 0.1 nM-300 μM, day 7
Protocol: as §2

[4] = tested on: fibrin degradation in the scaffold; assay: 3DeTME scaffold integrity and stability (weight) with antifibrinolytic agents; design: species or system human
Protocol: as §1

MCF7 = assay: 3DeTME drug screening, relative cell count and GR values; type: cell-based, human; settings: 0.1 nM-300 μM, day 7
Protocol: Methods: Three breast cancer (BCa) cell lines were previously labeled with DiD and incorporated in 3DeTME. Half a day after plating, cells were treated with a DMSO control (γCtrl) and increasing concentrations 0.1 nM-300 μM of seven standard-of-care chemotherapeutic drugs including Methotrexate (MTX), Paclitaxel (PTX), Capecitabine (CAP), Cyclophosphamide Monohydrate (CYCLO), Carboplatin (CARBO), Epirubicin Hydrochloride (EPI), and Docetaxel (DTX). Treatments were added on top of 3DeTME in order to simulate drug diffusion into a tumor. Treatments were refreshed at day 4 and BCa cells were retrieved from the different cultures for analysis at day 0.5 (γ0) and day 7. Samples were prepared in PBS for flow cytometry by adding counting beads (424902, Biolegend, CA) in addition to SytoxTM green dead cell stain (excitation 504 nm, emission 523 nm) ([MUT], Thermo Fisher Scientific, MA) for viability to each sample. BCa cells were identified by gating live cells with a DiD+ signal using the FL4 channel on BD AccuriTM C6 instrument (CFlow Software) (BD Biosciences). A minimum of 5×103 events was acquired per sample and BCa cell counts were acquired and data was analyzed using the FlowJoTM v10 (Ashland, Oreg.) software. Relative cell count and Growth rate (GR) values. […]

[5] = tested on: CD8+ T cell infiltration (PD-L1 blockade); assay: CD8+ T cell infiltration into 3DeTME matrices seeded with BCa cells; type: cell-based, human; settings: 3DeTME tumorous (1.5% O2); 5 μM for the first 4 days; read at day 7
Protocol: Methods: 3DeTME cultures were grown with cancer cells for 4 days, while being exposed to variable O2 environments (21% and 1.5% O2). Peripheral blood mononuclear cells (PBMCs) were incorporated at day 4 as a cell suspension in the medium added on the top of the matrix, while being exposed to the same O2 environment up to day 7, (FIG. 5A). Oxygen partial pressure (pO2) levels were measured in BCa cell-seeded 3DeTME matrices incubated under variable O2 environments (21% and 1.5% O2) after 0, 2, 4 and 7 days of culture. 3DeTME scaffolds containing BCa cells were profiled along the z-direction with an oxygen microsensor (Needle-Type Oxygen Microsensor NTH-PSt7, PreSens, Regensburg, Germany) and a manual micromanipulator (FIG. 5B). Briefly, to record oxygen pressure, the sensor was introduced into the geometric center (3 measure points) of the 3DeTME and moved from the border between the media and 3DeTME (top) in 10 μm steps towards the bottom of the well plate, as illustrated in FIG. 5C. […]
Methods: Differences in lymphocyte infiltration into 3DeTME scaffolds as a result of different oxygen content were assessed. PBMCs were incorporated as cell suspension in the medium added on the top of the matrix at day 4 and analyzed at day 7. […] Mean absolute numbers of CD3+, CD4+, CD8+ and CD19+ cells (normalized to beads) were determined in each experimental group. […]

[6] = 5 and 10 mg/ml, weight at day 24 vs day 0

CC(C)(C#N)c1cc(Cn2cncn2)cc(C(C)(C)C#N)c1 [Arimidex]
activity at 45 µM ([1]; Homo sapiens, 168 h, "responder" patient, read-out: survival of BCa cells (% of control)): 17% | survival of BCa cells ([1]; patient with "resistance" clinical outcome, 45 μM): little to no effect

[Ca+2].[Cl-].[Cl-] [CaCl2, calcium chloride]
cross-linking time (fastest) ([2]; cross-linker at 1 mg/ml): 4 min

CCCCCOC(=O)Nc1nc(=O)n([C@@H]2O[C@H](C)[C@@H](O)[C@H]2O)cc1F [capecitabine, Capecitabine]
type of drug effect (GR value) ([3]; over the concentrations tested): cytostatic

N.N.O=C([O-])C1(C(=O)[O-])CCC1.[Pt+2] [carboplatin, Carboplatin]
sensitivity of the cell line relative to the other BCa cell lines (MDA-MB-231): most sensitive | response among the BCa cell lines [3]: heterogeneous response

NCCCCCC(=O)O [epsilon-aminocaproic acid]
integrity benefit ([4]; at the concentrations tested (0-2.5 mg/ml), day 24 vs day 0): not able to sustain an integrity benefit

CN(Cc1cnc2nc(N)nc(N)c2n1)c1ccc(C(=O)N[C@@H](CCC(=O)O)C(=O)O)cc1 [methotrexate, Methotrexate]
sensitivity of the cell line relative to the other BCa cell lines (MCF7): most resistant | response among the BCa cell lines [3]: heterogeneous response

NC[C@H]1CC[C@H](C(=O)O)CC1 [tranexamic acid, trans-4-(aminomethyl)cyclohexanecarboxylic acid]
weight gain as share of total weight [4, 6]: around 10% | weight gain of 3D culture [4, 6]: about 24 mg

Durvalumab: selective, high-affinity human IgG1 mAb that blocks programmed cell death ligand-1 (PD-L1) binding to PD-1
CD8 infiltration [5]: did reverse CD8 infiltration

Factor XIII: cross-linker of the blood coagulation process, required activation by calcium
cross-linking time (fastest) ([2]; cross-linker at 6 mg/ml, activated by incorporating calcium): over 40 min

thrombin
cross-linking time ([2]; cross-linker at 5 mg/ml): 5 min

Reference: patent publication US20220228124A1, “Three-Dimensional Cross-Linked Scaffolds Of Peripheral Blood Plasma And Their Use” (SANFORD HEALTH, priority 2019, published 2022)
